Tested on: B/Malaysia/2506/04 virus
Set-up: species or system BALB/c mice
Settings: mouse, in vivo

SMILES: CCOC(=O)C1=C[C@@H](OC(CC)CC)[C@H](NC(C)=O)[C@@H](N)C1 [oseltamivir, Oseltamivir phosphate]
- weight loss: does not protect from weight loss

From patent US12545718B2 (priority 2019, dated 2026)
